{"source": "paper PMC12846068", "about": "“Insights into Transport Function of the Murine Organic Anion-Transporting Polypeptide OATP1B2 by Comparison with Its Rat and Human Orthologues” (Toxics, 2025)", "molecules": {"B1": {"name": "rOATP1B2 (Rattus norvegicus) (protein)", "chain": "MDHTQQSRKAAEAQPSRSKQTRFCDGFKLFLAALSFSYICKALGGVVMKSSITQIERRFDIPSSISGLIDGGFEIGNLLVIVFVSYFGSKLHRPKLIGIGCFIMGIGSILTALPHFFMGYYKYAKENDIGSLGNSTLTCFINQMTSPTGPSPEIVEKGCEKGLKSHMWIYVLMGNMLRGIGETPIVPLGISYLDDFAKEGHTSMHLGTLHTIAMIGPILGFIMSSVFAKIYVDVGYVDLNSVRITPNDARWVGAWWLSFIVNGLLCITSSIPFFFLPKIPKRSQEERKNSVSLHAPKTDEEKKHMTNLTKQEEQDPSNMTGFLRSLRSILTNEIYVIFLILTLLQVSGFIGSFTYLFKFIEQQFGRTASQANFLLGIITIPTMATAMFLGGYIVKKFKLTSVGIAKFVFFTSSVAYAFQFLYFPLLCENKPFAGLTLTYDGMNPVDSHIDVPLSYCNSDCSCDKNQWEPICGENGVTYISPCLAGCKSFRGDKKPNNTEFYDCSCISNSGNNSAHLGECPRYKCKTNYYFYIILQVTVSFFTAMGSPSLILILMKSVQPELKSLAMGFHSLIIRALGGILAPIYYGAFIDRTCIKWSVTSCGKRGACRLYNSRLFGFSYLGLNLALKTPPLFLYVVLIYFTKRKYKRNDNKTLENGRQFTDEGNPDSVNKNGYYCVPYDEQSNETPL"}, "B2": {"name": "mOATP1B2 (Mus musculus) (protein)", "chain": "MDQTQHPSKAAQPLRSEKTRHCDGFRIFLAALSFSYICKALGGVIMKSSITQIERRFDIPSSISGLIDGGFEIGNLLVIVFVSYFGSKLHRPKLIGTGCFIMGIGSILTALPHFFMGYYRYATENDISSLHNSTLTCLVNQTTSLTGTSPEIMEKGCEKGSNSYTWIYVLMGNMLRGIGETPIVPLGVSYIDDFAKEGNSSMYLGTLHTIAMIGPILGFIMSSVFAKLYVDVGYVDLRSVRITPQDARWVGAWWLGFIVNGLLCIICSIPFFFLPKIPKRSQKERKNSASLHVLKTDEDKNPVTNPTTQEKQAPANLTGFLWSLRSILTNEQYVIFLILTLLQISSFIGSFTYLFKFIEQQFGQTASQANFLLGVITIPTMASGMFLGGYLIKRLKLTLLGITKFVFFTTTMAYVFYLSYFLLICENKAFAGLTLTYDGMNPVDSHIDVPLSYCNSDCICDKNQWEPVCGENGVTYISPCLAGCKSFRGDKKLMNIEFYDCSCVSGSGFQKGNHSARLGECPRDKCKTKYYFYITFQVIISFFTALGSTSLMLILIRSVQPELKSLGMGFHSLVVRTLGGILAPVYYGALIDRTCMKWSVTSCGARGACRLYNSRLFGMIYVGLSIALKTPILLLYVALIYVMKRKMKRNDNKILENGRKFTDEGNPEPVNNNGYSCVPSDEKNSETPL"}}, "key": {"[1]": {"target": "T1, hOATP1B3 (Homo sapiens, UniProt Q9NPD5)", "T1 sequence (Q9NPD5 1-702)": "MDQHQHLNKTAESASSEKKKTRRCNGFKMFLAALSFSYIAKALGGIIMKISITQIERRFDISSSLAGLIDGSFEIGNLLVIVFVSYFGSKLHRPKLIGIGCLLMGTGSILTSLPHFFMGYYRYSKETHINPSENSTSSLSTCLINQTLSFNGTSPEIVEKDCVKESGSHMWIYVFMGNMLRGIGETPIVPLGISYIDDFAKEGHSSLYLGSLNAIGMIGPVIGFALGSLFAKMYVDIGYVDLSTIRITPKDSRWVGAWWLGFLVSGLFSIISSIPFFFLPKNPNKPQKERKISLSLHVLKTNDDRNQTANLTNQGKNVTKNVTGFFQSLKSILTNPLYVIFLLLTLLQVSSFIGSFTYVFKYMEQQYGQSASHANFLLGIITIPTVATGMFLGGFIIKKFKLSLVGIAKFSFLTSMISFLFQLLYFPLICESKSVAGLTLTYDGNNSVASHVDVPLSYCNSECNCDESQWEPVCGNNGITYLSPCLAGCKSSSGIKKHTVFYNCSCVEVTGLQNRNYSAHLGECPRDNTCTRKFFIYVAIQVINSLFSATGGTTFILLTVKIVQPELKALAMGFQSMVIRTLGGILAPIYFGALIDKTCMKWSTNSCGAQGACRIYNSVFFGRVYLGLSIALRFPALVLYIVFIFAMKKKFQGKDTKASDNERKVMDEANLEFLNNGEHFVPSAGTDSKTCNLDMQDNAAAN", "test": "cis-inhibition of hOATP1B3-mediated TCA uptake in HEK293 cells", "assay_type": "cell-based", "set-up": "expressed in transfected cells; host or cells: HEK-293, stably transfected", "conditions": "10 µM drug, 1 µM TCA, 10 min", "experimental": "(§1) Inhibitory effects were calculated as a percentage of the net-uptake rates.\n(§2) The means ± average deviation (AD, for N = 2) were calculated from two experiments on two different days. The significance as a p-value was calculated using Student’s t-test in Microsoft Excel."}, "[2]": {"target": "T2, rOATP1B2 (Rattus norvegicus, UniProt Q9QZX8)", "T2 construct": "The full-length mOATP1B2 and rOATP1B2 consist of 689 and 678 amino acids", "T2 sequence (Q9QZX8 1-687)": "B1 chain", "test": "cis-inhibition of rOATP1B2-mediated E1S or TCA uptake in HEK293 cells", "assay_type": "cell-based"}, "[3]": {"target": "T3, hOATP1B1 (Homo sapiens, UniProt Q9Y6L6)", "T3 sequence (Q9Y6L6 1-691)": "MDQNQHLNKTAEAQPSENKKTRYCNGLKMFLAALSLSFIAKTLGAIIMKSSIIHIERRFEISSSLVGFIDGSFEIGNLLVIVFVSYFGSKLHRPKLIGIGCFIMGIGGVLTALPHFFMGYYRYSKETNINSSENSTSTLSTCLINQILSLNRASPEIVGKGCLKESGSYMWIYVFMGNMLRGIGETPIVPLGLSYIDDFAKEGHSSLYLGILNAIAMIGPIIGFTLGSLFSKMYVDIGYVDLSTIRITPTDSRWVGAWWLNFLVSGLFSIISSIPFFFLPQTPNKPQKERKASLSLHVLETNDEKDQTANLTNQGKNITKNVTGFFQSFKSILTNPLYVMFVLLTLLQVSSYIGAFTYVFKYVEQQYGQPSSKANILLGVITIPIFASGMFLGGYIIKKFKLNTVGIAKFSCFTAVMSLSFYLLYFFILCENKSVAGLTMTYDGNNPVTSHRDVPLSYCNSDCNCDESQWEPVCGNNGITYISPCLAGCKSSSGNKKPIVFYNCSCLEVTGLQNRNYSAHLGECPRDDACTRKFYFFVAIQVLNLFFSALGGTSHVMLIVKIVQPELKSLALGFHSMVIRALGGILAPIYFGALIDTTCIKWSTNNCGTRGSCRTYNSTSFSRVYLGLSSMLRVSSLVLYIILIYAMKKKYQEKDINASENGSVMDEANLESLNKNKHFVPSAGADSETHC", "test": "cis-inhibition of hOATP1B1-mediated E1S uptake in HEK293 cells", "assay_type": "cell-based", "set-up": "expressed in transfected cells; host or cells: HEK-293, stably transfected", "conditions": "10 µM drug, 0.01 µM [3H]-E1S, 1 min", "experimental": "as §1, §2"}, "[4]": {"target": "T4, mOATP1B2 (Mus musculus, UniProt Q9JJL3)", "T4 construct": "The full-length mOATP1B2 and rOATP1B2 consist of 689 and 678 amino acids", "T4 sequence (Q9JJL3 1-689)": "B2 chain", "test": "cis-inhibition of mOATP1B2-mediated E1S or TCA uptake in HEK293 cells", "assay_type": "cell-based", "experimental": "Inhibition experiments with mOATP1B2 and rOATP2B1 were carried out in triplicate as cis-inhibition. […] Inhibitory effects were calculated as a percentage of the net-uptake rates. […] The means ± average deviation (AD, for N = 2) were calculated from two experiments on two different days. The significance as a p-value was calculated using Student's t-test in Microsoft Excel."}, "[5]": {"substrate": "C[C@H](CCC(=O)NCCS(=O)(=O)O)[C@H]1CC[C@H]2[C@@H]3[C@H](O)C[C@@H]4C[C@H](O)CC[C@]4(C)[C@H]3C[C@H](O)[C@]12C", "test": "cells, lysate or membranes", "conditions": "1 min, 37 °C, increasing unlabeled substrate with 10 nM 3H-substrate, pH 7.4"}, "[6]": {"conditions": "10 µM drug, substrates E1S and TCA not separated"}, "[7]": {"conditions": "HEK293, 10 µM drug, 1 µM [3H]-E1S, 1 min, read-out: Inhibitory effect on rOATP1B2-mediated E1S uptake"}, "[8]": {"conditions": "HEK293, read-out: Inhibitory effect on rOATP1B2-mediated TCA uptake, 10 µM drug, 1 µM [3H]-TCA, 1 min"}, "[9]": {"conditions": "HEK293, 10 µM drug, 1 µM [3H]-E1S, 1 min, read-out: Inhibitory effect on mOATP1B2-mediated E1S uptake"}, "[10]": {"conditions": "HEK293, read-out: Inhibitory effect on mOATP1B2-mediated TCA uptake, 10 µM drug, 1 µM [3H]-TCA, 1 min"}}, "note": "Where two headings read alike, the source gives them in different places."}
{"molecule": "CCCc1nc(C(C)(C)O)c(C(=O)O)n1Cc1ccc(-c2ccccc2-c2nnn[nH]2)cc1", "note": "[Olmesartan, olmesartan]", "values": [{"measurement": "Inhibitory effect on hOATP1B3-mediated TCA uptake", "setting": "[1]", "value": 29, "unit": "%"}, {"measurement": "Inhibitory effect on hOATP1B3-mediated TCA uptake", "setting": "[1]; listed as olmesartan", "value": "less than 50%"}, {"measurement": "Inhibitory effect on rOATP1B2-mediated substrate uptake (summary over E1S and TCA)", "setting": "[2]; [6]", "value": "below 50%"}, {"measurement": "inhibition at 10 µM", "setting": "[2]; [7]", "value": 27, "unit": "%"}, {"measurement": "inhibition at 10 µM", "setting": "[2]; [8]", "value": 32, "unit": "%"}, {"measurement": "Inhibitory effect on hOATP1B1-mediated E1S uptake", "setting": "[3]", "value": 18, "unit": "%"}, {"measurement": "Inhibitory effect on hOATP1B1-mediated E1S uptake", "setting": "[3]; listed as olmesartan", "value": "less than 50%"}, {"measurement": "Inhibitory effect on mOATP1B2-mediated substrate uptake (summary over E1S and TCA)", "setting": "[4]; [6]", "value": "below 50%"}, {"measurement": "inhibition at 10 µM", "setting": "[4]; [9]", "value": 18, "unit": "%"}, {"measurement": "inhibition at 10 µM", "setting": "[4]; [10]", "value": 25, "unit": "%"}]}
{"molecule": "CC(C)c1nc(CN(C)C(=O)N[C@H](C(=O)N[C@@H](Cc2ccccc2)C[C@H](O)[C@H](Cc2ccccc2)NC(=O)OCc2cncs2)C(C)C)cs1", "note": "[Ritonavir, ritonavir]", "values": [{"measurement": "inhibition at 10 µM", "setting": "[2]; [7]", "value": 84, "unit": "%"}, {"measurement": "inhibition at 10 µM", "setting": "[2]; [8]", "value": 78, "unit": "%"}, {"measurement": "inhibition at 10 µM", "setting": "[2]; HEK293, read-out: Inhibitory effect on rOATP1B2-mediated substrate uptake (summary over E1S and TCA), 10 µM drug, substrates E1S and TCA not separated", "value": "> 70", "unit": "%"}, {"measurement": "inhibition at 10 µM", "setting": "[4]; [9]", "value": 74, "unit": "%"}, {"measurement": "inhibition at 10 µM", "setting": "[4]; [10]", "value": 71, "unit": "%"}]}
{"molecule": "B1", "values": [{"measurement": "Km", "setting": "[5]; other: rOATP1B2-HEK293, net uptake", "value": "16 ± 3", "unit": "µM"}]}
{"molecule": "B2", "values": [{"measurement": "Km", "setting": "[5]; other: mOATP1B2-HEK293, net uptake", "value": "73 ± 11", "unit": "µM"}]}
